# Laboratory results: patent US6271266A (Takeda Chemical Industries, Ltd., priority 1996, dated 2001)
# What was measured:
# [1] = system: Alzheimer type senile dementia; conditions: cited from earlier work
# rat hippocampal neurons [2] = assay: LDH leakage from cultured rat hippocampal neurons exposed to Aβ1-40; assay type: cell-based
# Protocol: (§1) The cultured rat hippocampal neurons were prepared by the following procedure.
# From the 18-day viviparous SD rat brain, the hippocampus was isolated on ice and treated with 0.25% trypsin and 0.1 mg/ml deoxyribonuclease I in Hank's solution at 37° C. for 10 minutes. The enzyme-treated cells were collected with a filter and suspended in Eagle's MEM containing 50 U/ml penicillin, 50 μg/ml streptomycin, 10% fetal calf serum, and 1% B27 Supplement (GIBCO). The suspension was diluted and seeded on a 48-well plate (COSTAR) precoated with poly-L-lysine, 100,000 cells/300 μl/well. Culture was carried out in the presence of 5% carbon dioxide gas at 37° C. […] On day 7 of culture, the medium was further replaced with MEM-N2 containing Aβ1-40 (Bachem) and the test drug, and the efficacy of the drug against the toxicity of Aβ1-40 was evaluated.
# (§2) The lactate dehydrogenase (LDH) activity released extracellularly from the injured cells into the medium was assayed over 3-5 days after treatment and the toxicity was evaluated using the assayed activity as an indicator. In addition, on day 4 after addition of the drug, the cells were fixed with 4% paraformaldehyde, stained with anti-MAP2 antibody (Amersham) and randomly photographed under the microscope, and the number of neurons per visual field was counted.
# [3] = system: patients with Alzheimer's disease; conditions: 90 mg or 120 mg 3 times a day (270 or 360 mg per day), 6 months; cited from earlier work
# [4] = system: rat retinal neuron-neuroblastoma hybrid N18-RE-105 cells; conditions: cited from earlier work
# rat hippocampal neurons [5] = assay: Number of viable neurons (anti-MAP2 staining) after Aβ1-40; assay type: cell-based; conditions: Aβ1-40 10 μM, day 4 after addition, FIG. 3
# Protocol: as §1
# From the 18-day viviparous SD rat brain, the hippocampus was isolated on ice and treated with 0.25% trypsin and 0.1 mg/ml deoxyribonuclease I in Hank's solution at 37° C. for 10 minutes. The enzyme-treated cells were collected with a filter and suspended in Eagle's MEM containing 50 U/ml penicillin, 50 μg/ml streptomycin, 10% fetal calf serum, and 1% B27 Supplement (GIBCO). The suspension was diluted and seeded on a 48-well plate (COSTAR) precoated with poly-L-lysine, 100,000 cells/300 μl/well. Culture was carried out in the presence of 5% carbon dioxide gas at 37° C. On day 4 of culture, the medium was replaced with Eagle's MEM (MEM-N2) containing 50 U/ml penicillin, 50 μg/ml streptomycin, 10 mM HEPES-Na (pH 7.3) and N2 Supplement. On day 7 of culture, the medium was further replaced with MEM-N2 containing Aβ1-40 (Bachem) and the test drug, and the efficacy of the drug against the toxicity of Aβ1-40 was evaluated.
# as §2
# cultured nerve cells = conditions: cited from earlier work
compound,measurement,setting,value
"COC1=C(OC)C(=O)C(CCCCCCCCCCO)=C(C)C1=O [idebenone, 6-(10-hydroxydecyl)-2,3-dimethoxy-5-methyl-1,4-benzoquinone]",efficacy in Alzheimer type senile dementia,[1]; 90 mg daily to adult patients,efficacy
same,clinical effect in Alzheimer type senile dementia,[1]; high doses (270 mg-360 mg day per adult),clinically effective
same,release of LDH,"rat hippocampal neurons [2]; idebenone 100 nM, Aβ1-40 10 μM, 3-5 days following addition, FIG. 2",suppressed the release of LDH
same,GOT time course,[3],the changes were small with substantially no difference from the control values
same,GPT time course,[3],the changes were small with substantially no difference from the control values
same,glutamate-induced neuronal death,[4],suppresses glutamate-induced neuronal death
same,neuroprotection / reactive oxygen species scavenging,[4],exerts the neuroprotection by the reactive oxygen species scavenging activity
same,neuronal death,rat hippocampal neurons [5]; idebenone 100 nM,inhibited neuronal death significantly
same,number of viable cells,"rat hippocampal neurons [5]; idebenone 100 nM, anti-MAP2 antibody",approximately equal to the number of viable cells in the control group
Aβ1-40: β-amyloid protein 1-40 (Bachem),leakage of LDH activity into the medium (toxicity),"rat hippocampal neurons [2]; 3-5 days after addition of Aβ1-40, FIG. 1",dose-dependent toxicity
same,number of neurons,rat hippocampal neurons [5],decline in the number of neurons
β-amyloid,neuronal toxicity,cultured nerve cells,shows neuronal toxicity
